Data published in PubChem BioAssay AID248 (DTP/NCI, 2004).
Toxic doses and inconclusive results are not listed. Rule as the data show it: active = T/C of 150% or more; inactive = T/C below 125%.

Test system: L1210 leukemia ip in BDF1 mice, survival T/C
Test: NCI In Vivo Anticancer Drug Screen. Data for tumor model L1210 Leukemia (intraperitoneal) in B6D2F1 (BDF1) mice
Settings: endpoint: mean survival time, higher = longer survival
Outline: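 Value reflects the ratio of survival in compound-treated mice to survival in vehicle-treated controls, with both groups carrying the same transplanted tumor.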

[1] = dose: 100.0 mg/kg/injection, schedule: Q01DX001 (ip), vehicle: Klucel (hydroxypropylcellulose) (HPC)
[2] = dose: 100.0 mg/kg/injection, schedule: Q01DX001 (ip), vehicle: carboxymethylcellulose (CMC)
[3] = dose: 100.0 mg/kg/injection, schedule: Q01DX009 (ip), vehicle: saline with Tween-80
[4] = dose: 200.0 mg/kg/injection, schedule: Q01DX009 (ip), vehicle: saline with Tween-80
[5] = dose: 100.0 mg/kg/injection, schedule: Q04DX002 (ip), vehicle: Klucel (hydroxypropylcellulose) (HPC)
[6] = dose: 200.0 mg/kg/injection, schedule: Q04DX002 (ip), vehicle: Klucel (hydroxypropylcellulose) (HPC)
[7] = dose: 100.0 mg/kg/injection, schedule: Q01DX009 (ip), vehicle: saline
[8] = dose: 200.0 mg/kg/injection, schedule: Q01DX009 (ip), vehicle: saline
[9] = dose: 100.0 mg/kg/injection, schedule: Q04DX003 (ip), vehicle: saline with Tween-80
[10] = dose: 200.0 mg/kg/injection, schedule: Q04DX003 (ip), vehicle: saline with Tween-80
[11] = dose: 400.0 mg/kg/injection, schedule: Q04DX003 (ip), vehicle: saline with Tween-80
[12] = dose: 200.0 mg/kg/injection, schedule: Q01DX001 (ip), vehicle: carboxymethylcellulose (CMC)
[13] = dose: 400.0 mg/kg/injection, schedule: Q01DX001 (ip), vehicle: carboxymethylcellulose (CMC)
[14] = dose: 100.0 mg/kg/injection, schedule: Q01DX009 (ip), vehicle: Klucel (hydroxypropylcellulose) (HPC)
[15] = dose: 100.0 mg/kg/injection, schedule: Q04DX003 (ip), vehicle: Klucel (hydroxypropylcellulose) (HPC)
[16] = dose: 200.0 mg/kg/injection, schedule: Q04DX003 (ip), vehicle: Klucel (hydroxypropylcellulose) (HPC)
[17] = dose: 400.0 mg/kg/injection, schedule: Q04DX003 (ip), vehicle: Klucel (hydroxypropylcellulose) (HPC)

Measured: T/C

COC(=O)C1=C(C)NC(=O)NC1c1ccc(N(CCCl)CCCl)c(OC)c1 (stereo not drawn)
inactive: dose: 3.0 mg/kg/injection, schedule: Q01DX009 (ip), vehicle: Klucel (hydroxypropylcellulose) (HPC) 115 % of control | dose: 6.0 mg/kg/injection, schedule: Q01DX009 (ip), vehicle: Klucel (hydroxypropylcellulose) (HPC) 117 % of control | dose: 12.0 mg/kg/injection, schedule: Q01DX009 (ip), vehicle: Klucel (hydroxypropylcellulose) (HPC) 112 % of control | [1] 109 % of control

CC(C)CN(C)N=Nc1ccc(C(=N)N)cc1
inactive: dose: 5.0 mg/kg/injection, schedule: Q01DX001 (ip), vehicle: carboxymethylcellulose (CMC) 94 % of control | dose: 10.0 mg/kg/injection, schedule: Q01DX001 (ip), vehicle: carboxymethylcellulose (CMC) 97 % of control | dose: 20.0 mg/kg/injection, schedule: Q01DX001 (ip), vehicle: carboxymethylcellulose (CMC) 97 % of control | dose: 40.0 mg/kg/injection, schedule: Q01DX001 (ip), vehicle: carboxymethylcellulose (CMC) 92 % of control | dose: 80.0 mg/kg/injection, schedule: Q01DX001 (ip), vehicle: carboxymethylcellulose (CMC) 91 % of control | [2] 105 % of control

C=CCNC(=O)c1cncc(C(=O)O)c1
inactive: dose: 100.0 mg/kg/injection, schedule: Q01DX001 (ip), vehicle: saline 96 % of control | dose: 200.0 mg/kg/injection, schedule: Q01DX001 (ip), vehicle: saline 104 % of control | dose: 400.0 mg/kg/injection, schedule: Q01DX001 (ip), vehicle: saline 98 % of control

Cc1ccc(NC(=O)C2CCC(C)(C(=O)O)C2(C)C)cc1 (stereo not drawn)
inactive: dose: 50.0 mg/kg/injection, schedule: Q01DX009 (ip), vehicle: saline with Tween-80 104 % of control | [3] 101 % of control | [4] 93 % of control

c1ccc(Cc2nn[nH]n2)cc1
inactive: [5] 105 % of control | [6] 101 % of control | dose: 400.0 mg/kg/injection, schedule: Q04DX002 (ip), vehicle: Klucel (hydroxypropylcellulose) (HPC) 105 % of control

CCN(CC)C(=S)[S][Bi]([S]C(=S)N(CC)CC)[S]C(=S)N(CC)CC
inactive: dose: 100.0 mg/kg/injection, schedule: Q01DX001 (ip), vehicle: steriod suspending solution 112 % of control | dose: 200.0 mg/kg/injection, schedule: Q01DX001 (ip), vehicle: steriod suspending solution 91 % of control | dose: 400.0 mg/kg/injection, schedule: Q01DX001 (ip), vehicle: steriod suspending solution 96 % of control

CC(C)SC=O
inactive: dose: 50.0 mg/kg/injection, schedule: Q01DX009 (ip), vehicle: saline 94 % of control | [7] 93 % of control | dose: 100.0 mg/kg/injection, schedule: Q04DX003 (ip), vehicle: saline 100 % of control | [8] 93 % of control | dose: 200.0 mg/kg/injection, schedule: Q04DX003 (ip), vehicle: saline 105 % of control | dose: 400.0 mg/kg/injection, schedule: Q01DX009 (ip), vehicle: saline 89 % of control | dose: 400.0 mg/kg/injection, schedule: Q04DX003 (ip), vehicle: saline 100 % of control

O=C(CC(O)(C(F)(F)F)C(F)(F)F)c1cc(Cl)ccc1Cl
inactive: [9] 112 % of control | [10] 105 % of control | [11] 103 % of control

Nc1nc(N)c(N=Nc2ccc(S(=O)(=O)Nc3ncccn3)cc2)cc1N=Nc1ccccc1
inactive: [2] 101 % of control | [12] 95 % of control | [13] 103 % of control

O=c1[nH]c(=O)n(C2CCCO2)cc1I (stereo not drawn)
inactive: [2] 95 % of control | [12] 98 % of control | [13] 93 % of control

O=[N+]([O-])c1ccc(C=Nc2cccc(C(F)(F)F)c2)cc1
inactive: [14] 90 % of control | [15] 90 % of control | dose: 200.0 mg/kg/injection, schedule: Q01DX009 (ip), vehicle: Klucel (hydroxypropylcellulose) (HPC) 98 % of control | [16] 95 % of control | [17] 93 % of control

O=C(NC(=S)Nc1ccccc1Cl)c1ccccc1
inactive: [15] 94 % of control | [16] 96 % of control | [17] 97 % of control

O=C(NOCc1cc2c(cc1Cl)OCO2)c1ccc(S(=O)(=O)F)cc1
inactive: dose: 100.0 mg/kg/injection, schedule: Q04DX003 (ip), vehicle: saline sonified 95 % of control

Nc1ccc(-c2ccc(NC(=O)C(=O)O)cc2)cc1
inactive: dose: 12.5 mg/kg/injection, schedule: Q04DX003 (ip), vehicle: Klucel (hydroxypropylcellulose) (HPC) 101 % of control | dose: 25.0 mg/kg/injection, schedule: Q01DX009 (ip), vehicle: Klucel (hydroxypropylcellulose) (HPC) 95 % of control | dose: 25.0 mg/kg/injection, schedule: Q04DX003 (ip), vehicle: Klucel (hydroxypropylcellulose) (HPC) 97 % of control | dose: 50.0 mg/kg/injection, schedule: Q01DX009 (ip), vehicle: Klucel (hydroxypropylcellulose) (HPC) 97 % of control | dose: 50.0 mg/kg/injection, schedule: Q04DX003 (ip), vehicle: Klucel (hydroxypropylcellulose) (HPC) 111 % of control | [14] 100 % of control | [15] 111 % of control

CCCC/C=C/C1C=CCCC1 (stereo not drawn)
inactive: dose: 50.0 mg/kg/injection, schedule: Q01DX009 (ip), vehicle: other 100 % of control | dose: 100.0 mg/kg/injection, schedule: Q01DX009 (ip), vehicle: other 95 % of control | dose: 200.0 mg/kg/injection, schedule: Q01DX009 (ip), vehicle: other 100 % of control

CN(C)C(=O)Sc1cccnc1
inactive: [7] 116 % of control | [8] 119 % of control

C#CC1(N2CCCCC2)CCCCC1
inactive: [5] 102 % of control | [6] 98 % of control

C1CCCC2(CCC1)OCCO2
inactive: [3] 93 % of control | [9] 113 % of control | [4] 102 % of control | [10] 108 % of control | dose: 400.0 mg/kg/injection, schedule: Q01DX009 (ip), vehicle: saline with Tween-80 101 % of control | [11] 94 % of control

CC/C(=N\NC(N)=O)C(OC)OC
inactive: [2] 108 % of control | [12] 86 % of control | [13] 92 % of control

O=P1(c2ccccc2)CCc2[nH]c3ccc(Br)cc3c2C1 (stereo not drawn)
inactive: [1] 97 % of control | dose: 200.0 mg/kg/injection, schedule: Q01DX001 (ip), vehicle: Klucel (hydroxypropylcellulose) (HPC) 93 % of control | dose: 400.0 mg/kg/injection, schedule: Q01DX001 (ip), vehicle: Klucel (hydroxypropylcellulose) (HPC) 98 % of control
